Among the data in EP2818472A1, “Imidazo[4,5-c]pyridine and pyrrolo[3,2-c]pyridine compounds as G-protein-coupled receptor kinase 5 (GRK5) modulators” (Max-Planck-Gesellschaft zur Förderung der Wissenschaften …, priority 2013, dated 2014) are Emax values, retold here.

Some results are limits rather than exact numbers.

The subject of the test is beta-TC6 cells. Kind of test: Insulin HTRF assay (relative activity Ar) in beta-TC6 cells. In kind it is cell-based, mouse. Conditions: Mus musculus, Beta-TC6, 4 h, insulin HTRF, supernatant of beta-TC6 cells, incubation with test compound at 37°C for 2, 3, 4h; read-out: Ar (relative activity). The method in brief:
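beta-TC6 cells (15k/well, seeded 24 or 48 h) washed, then exposed to compound in induction buffer (0.5% DMSO final) for 2, 3 or 4 h at 37°C.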
Consider `CNc1nc2cnc(Nc3cccc(N(C)C)c3)cc2n1-c1cccc(F)c1` [Compound 682, N6-[3-(dimethylamino)phenyl]-1-(3-fluorophenyl)-N2-methyl-imidazo[4,5-c]pyridine-2,6-diamine], for which the Emax was 50 to 100%.

With `COc1ccc(-c2nc3c(Nc4cccc(OC)c4)nccc3[nH]2)cc1` [Compound 390, N-(3-methoxyphenyl)-2-(4-methoxyphenyl)-1H-imidazo[4,5-c]pyridin-4-amine], the Emax lay in the range of 30 to 50%.

`Cn1c(NCc2ccccc2)nc2cnc(-c3cccc(C(=O)O)c3)cc21` [Compound 748, 3-[2-(benzylamino)-1-methyl-imidazo[4,5-c]pyridin-6-yl]benzoic acid]: the Emax lay within 0 to 30%.

For the compound `CN(C)c1ccc(-c2cc3c(cn2)nc(NCc2ccccc2)n3C)cc1` [Compound 615, N-benzyl-6-(4-dimethylaminophenyl)-1-methyl-imidazo[4,5-c]pyridin-2-amine], the Emax was > 100%.

Take `Cn1c(Nc2ccccc2)nc2cnc(Nc3ccccn3)cc21` [Compound 637, 1-methyl-N2-phenyl-N6-(2-pyridyl)imidazo[4,5-c]pyridine-2,6-diamine]: the Emax lay within 30 to 50%.

As for `c1cncc(Nc2nccc3[nH]c(-c4ccsc4)cc23)c1` [Compound 255, N-(3-pyridyl)-2-(3-thienyl)-1H-pyrrolo[3,2-c]pyridin-4-amine], the Emax lay in the range of 50 to 100%.

With `COc1ccc(Nc2nccc3[nH]c(-c4ccc(F)c(F)c4)nc23)cc1OC` [Compound 440, 2-(3,4-difluorophenyl)-N-(3,4-dimethoxyphenyl)-1H-imidazo[4,5-c]pyridin-4-amine], the Emax was in the range of 30 to 50%.

As to `CC(=O)Nc1cccc(Nc2cc3c(cn2)nc(-c2ccco2)n3C)c1` [Compound 712, N-[3-[[2-(2-furyl)-1-methyl-imidazo[4,5-c]pyridin-6-yl]amino]phenyl]acetamide], the Emax was in the range of 50 to 100%.

Consider `Cn1c(Nc2ccccc2)nc2cnc(Nc3ccccc3)cc21` [Compound 634, 1-methyl-N2,N6-diphenyl-imidazo[4,5-c]pyridine-2,6-diamine], for which the Emax was 50 to 100%.

For the compound `COc1cc(Nc2cc3c(cn2)nc(NCc2ccccc2)n3C)cc(OC)c1OC` [Compound 616, N2-benzyl-1-methyl-N6-(3,4,5-trimethoxyphenyl)imidazo[4,5-c]pyridine-2,6-diamine], the Emax lay within 50 to 100%.

`Cc1cccc(CNc2nc3cnc(-c4ccoc4)cc3n2C)c1` [Compound 583, 6-(3-furyl)-1-methyl-N-(m-tolylmethyl)imidazo[4,5-c]pyridin-2-amine]: the Emax is 50 to 100%.

As for `Fc1cccc(-c2cc3cnc(Nc4ccc(F)c(Cl)c4)cc3[nH]2)c1` [Compound 9, N-(3-chloro-4-fluoro-phenyl)-2-(3-fluorophenyl)-1H-pyrrolo[3,2-c]pyridin-6-amine], the Emax lay within 0 to 30%.

`CNc1nc2cnc(Nc3ccc4c(c3)OCO4)cc2n1Cc1ccccc1` [Compound 534, N6-(1,3-benzodioxol-5-yl)-1-benzyl-N2-methyl-imidazo[4,5-c]pyridine-2,6-diamine]: the Emax lay within 50 to 100%.

As to `CNc1nc2cnc(Nc3cccc(C(C)=O)c3)cc2n1Cc1ccc(OC)c(OC)c1` [Compound 673, 1-[3-[[1-[(3,4-dimethoxyphenyl)methyl]-2-(methylamino)imidazo[4,5-c]pyridin-6-yl]amino]phenyl]ethanone], the Emax was in the range of 50 to 100%.

In the case of `CN(C)c1ccc(-c2cc3c(Nc4ccc(S(C)(=O)=O)cc4)nccc3n2C)cc1` [Compound 230, 2-(4-dimethylaminophenyl)-1-methyl-N-(4-methylsulfonylphenyl)pyrrolo[3,2-c]pyridin-4-amine], the Emax lay in the range of 30 to 50%.

With `CN(C)c1cccc(Nc2cc3c(cn2)cc(-c2cccnc2)n3C)c1` [Compound 89, N1,N1-dimethyl-N3-[1-methyl-2-(3-pyridyl)pyrrolo[3,2-c]pyridin-6-yl]benzene-1,3-diamine], the Emax lay in the range of 50 to 100%.

In the case of `CNc1nc2cnc(Nc3cccc(NC(C)=O)c3)cc2n1Cc1ccccc1` [Compound 538, N-[3-[[1-benzyl-2-(methylamino)imidazo[4,5-c]pyridin-6-yl]amino]phenyl]acetamide], the Emax was in the range of 50 to 100%.

Consider `CC(=O)N(C)c1cccc(-c2cc3cnc(Nc4ccc(C#N)cc4)cc3n2C)c1` [Compound 168, N-[3-[6-(4-cyanoanilino)-1-methyl-pyrrolo[3,2-c]pyridin-2-yl]phenyl]-N-methyl-acetamide], for which the Emax is 30 to 50%.

In the case of `CC(=O)c1cccc(Nc2cc3c(cn2)cc(-c2cnn(C)c2)n3C)c1` [Compound 150, 1-[3-[[1-methyl-2-(1-methylpyrazol-4-yl)pyrrolo[3,2-c]pyridin-6-yl]amino]phenyl]ethanone], the Emax fell in the range of 50 to 100%.

Turning to `COc1cncc(-c2cc3c(cn2)nc(-c2ccco2)n3C)c1` [Compound 764, 2-(2-furyl)-6-(5-methoxy-3-pyridyl)-1-methyl-imidazo[4,5-c]pyridine], the Emax fell in the range of 0 to 30%.

As for `CNc1nc2cnc(Nc3ccc(OC)c(OC)c3)cc2n1-c1ccccc1` [Compound 506, N6-(3,4-dimethoxyphenyl)-N2-methyl-1-phenyl-imidazo[4,5-c]pyridine-2,6-diamine], the Emax lay within 50 to 100%.

With `COc1cc(OC)cc(-c2cc3c(Nc4ccc(C(N)=O)cc4)nccc3[nH]2)c1` [Compound 290, 4-[[2-(3,5-dimethoxyphenyl)-1H-pyrrolo[3,2-c]pyridin-4-yl]amino]benzamide], the Emax was in the range of 50 to 100%.

As for `c1ccc(-c2cc3c(Nc4ccccn4)nccc3[nH]2)cc1` [Compound 321, 2-phenyl-N-(2-pyridyl)-1H-pyrrolo[3,2-c]pyridin-4-amine], the Emax was 30 to 50%.

With `CNc1nc2cnc(Nc3cc(C(F)(F)F)ccc3F)cc2n1Cc1ccco1` [Compound 777, N6-[2-fluoro-5-(trifluoromethyl)phenyl]-1-(2-furylmethyl)-N2-methyl-imidazo[4,5-c]pyridine-2,6-diamine], the Emax fell in the range of 0 to 30%.

Consider `Cn1c(-c2ccsc2)cc2c(Nc3cccnc3)nccc21` [Compound 276, 1-methyl-N-(3-pyridyl)-2-(3-thienyl)pyrrolo[3,2-c]pyridin-4-amine], for which the Emax was in the range of 30 to 50%.

Consider `COc1ccc(Nc2nccc3[nH]c(-c4cccc(F)c4)cc23)cc1O` [Compound 204, 5-[[2-(3-fluorophenyl)-1H-pyrrolo[3,2-c]pyridin-4-yl]amino]-2-methoxy-phenol], for which the Emax lay within 50 to 100%.

In the case of `CNc1nc2cnc(Nc3ccc(OC)cc3C)cc2n1CC1CC1` [Compound 760, 1-(cyclopropylmethyl)-N6-(4-methoxy-2-methyl-phenyl)-N2-methyl-imidazo[4,5-c]pyridine-2,6-diamine], the Emax was in the range of 0 to 30%.

On to `CN(C)c1ccc(-c2cc3cnc(Nc4ccncn4)cc3n2Cc2ccccc2)cc1` [Compound 61, 1-benzyl-2-(4-dimethylaminophenyl)-N-pyrimidin-4-yl-pyrrolo[3,2-c]pyridin-6-amine], for which the Emax fell in the range of 0 to 30%.

As to `COCCNc1nc2cnc(-c3cnn(C)c3)cc2n1C` [Compound 651, N-(2-methoxyethyl)-1-methyl-6-(1-methylpyrazol-4-yl)imidazo[4,5-c]pyridin-2-amine], the Emax fell in the range of 50 to 100%.

On to `COc1ccc(-c2cc3c(cn2)nc(NCc2ccccc2F)n3C)cc1OC` [Compound 865, 6-(3,4-dimethoxyphenyl)-N-[(2-fluorophenyl)methyl]-1-methyl-imidazo[4,5-c]pyridin-2-amine], for which the Emax was in the range of 30 to 50%.

With `CNc1nc2cnc(-c3ccc(N(C)C)cc3)cc2n1Cc1ccccc1` [Compound 525, 1-benzyl-6-(4-dimethylaminophenyl)-N-methyl-imidazo[4,5-c]pyridin-2-amine], the Emax is 30 to 50%.

As to `COc1cc(Nc2cc3c(cn2)cc(-c2cccnc2)n3C)cc(OC)c1OC` [Compound 82, 1-methyl-2-(3-pyridyl)-N-(3,4,5-trimethoxyphenyl)pyrrolo[3,2-c]pyridin-6-amine], the Emax fell in the range of 50 to 100%.

As for `CS(=O)(=O)Nc1cccc(Nc2nccc3[nH]c(-c4ccc(O)cc4)nc23)c1` [Compound 366, N-[3-[[2-(4-hydroxyphenyl)-1H-imidazo[4,5-c]pyridin-4-yl]amino]phenyl]methanesulfonamide], the Emax is 30 to 50%.

For the compound `Cn1c(NCc2ccccc2)nc2cnc(-c3cccs3)cc21` [Compound 841, N-benzyl-1-methyl-6-(2-thienyl)imidazo[4,5-c]pyridin-2-amine], the Emax was 30 to 50%.

Take `Cn1c(-c2ccsc2)cc2c(Nc3cccc(S(C)(=O)=O)c3)nccc21` [Compound 282, 1-methyl-N-(3-methylsulfonylphenyl)-2-(3-thienyl)pyrrolo[3,2-c]pyridin-4-amine]: the Emax was in the range of 30 to 50%.

Regarding `COC(=O)c1ccc(Nc2nccc3[nH]c(-c4ccsc4)cc23)cc1` [Compound 261, methyl 4-[[2-(3-thienyl)-1H-pyrrolo[3,2-c]pyridin-4-yl]amino]benzoate], the Emax fell in the range of 0 to 30%.

`CNc1nc2cnc(Nc3ccc(OC)c(O)c3)cc2n1Cc1ccccc1` [Compound 536, 5-[[1-benzyl-2-(methylamino)imidazo[4,5-c]pyridin-6-yl]amino]-2-methoxy-phenol]: the Emax is 50 to 100%.

On to `COc1cc(Nc2cc3c(cn2)cc(-c2cnn(C)c2)n3C)cc(OC)c1OC` [Compound 125, 1-methyl-2-(1-methylpyrazol-4-yl)-N-(3,4,5-trimethoxyphenyl)pyrrolo[3,2-c]pyridin-6-amine], for which the Emax was > 100%.

With `Cn1c(NCC2CCCO2)nc2cnc(-c3ccc(N4CCOCC4)cc3)cc21` (stereo not shown) [Compound 640, 1-methyl-6-(4-morpholinophenyl)-N-(tetrahydrofuran-2-ylmethyl)imidazo[4,5-c]pyridin-2-amine], the Emax lay within 30 to 50%.

As for `COc1cccc(-c2nc3c(Nc4cccc(F)c4)nccc3[nH]2)c1F` [Compound 481, 2-(2-fluoro-3-methoxy-phenyl)-N-(3-fluorophenyl)-1H-imidazo[4,5-c]pyridin-4-amine], the Emax lay in the range of 30 to 50%.
